Here are results for 23 compounds from patent US20130245355A1, “3-HETARYL-SUBSTITUTED PYRROLO[2,3 B]PYRIDINE DERIVATIVES AS PDK1 INHIBITORS” (MERCK PATENT GMBH, priority 2010, published 2013).

Assay [1] addresses T1, PDK1 (Homo sapiens, UniProt O15530).
T1 construct: endogenous in cells; host or cells: PC3 cells
T1 sequence (O15530 1-556): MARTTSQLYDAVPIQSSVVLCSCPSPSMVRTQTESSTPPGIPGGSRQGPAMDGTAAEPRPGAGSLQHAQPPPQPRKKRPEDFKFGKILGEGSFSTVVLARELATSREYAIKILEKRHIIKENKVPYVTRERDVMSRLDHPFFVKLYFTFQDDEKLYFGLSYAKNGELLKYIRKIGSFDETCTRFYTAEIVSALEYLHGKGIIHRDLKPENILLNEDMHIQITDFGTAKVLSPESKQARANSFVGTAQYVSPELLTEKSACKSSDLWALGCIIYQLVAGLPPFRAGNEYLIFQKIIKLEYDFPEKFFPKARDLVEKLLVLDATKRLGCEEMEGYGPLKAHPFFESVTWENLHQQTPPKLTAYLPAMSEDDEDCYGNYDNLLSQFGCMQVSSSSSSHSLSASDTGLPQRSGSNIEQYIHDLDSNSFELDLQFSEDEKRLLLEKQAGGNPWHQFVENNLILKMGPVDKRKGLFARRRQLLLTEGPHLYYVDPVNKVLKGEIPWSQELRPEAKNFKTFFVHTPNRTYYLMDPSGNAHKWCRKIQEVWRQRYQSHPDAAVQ
Kind of assay: Cellular testing of PDK1 kinase inhibitors in PC3 cells (Luminex, phospho-T308-PKB). The assay is classed as cell-based. The note with it: 30 min, serum-free. Here is the method:
Method for the Cellular Testing of PDK1 Kinase Inhibitors in PC3 Cells.
The cellular assay for the determination of the PDK1 kinase activity is carried out as a Luminex assay in the 96-well format. PC3 cells are sown at 20,000 cells per well in 100 μl of medium (45% of […]/45% of Ham's F12/10% of FCS) and incubated on the following day for 30 min with a serial dilution of the test substance (7 concentrations) under serum-free conditions. The cells are subsequently lysed using 90 μl of lysis buffer (20 mM tris/HCl pH 8.0, 150 mM NaCl, 1% of NP40, 10% of glycerol, 1% of phosphatase inhibitor I, 1% of phosphatase inhibitor II, 0.1% of protease inhibitor cocktail III, 0.01% of benzonase) per well, and the lysates are separated off from insoluble cell constituents by means of centrifugation through a 96-well filter plate (0.65 μm). The lysates are incubated overnight at 4° C. with shaking with Luminex beads to which an anti-total PKB antibody is coupled. The detection is carried out on the following day by addition of a phospho-T308-PKB antibody and a species-specific […] secondary antibody. The detection of phospho T308-PKB is carried out by measurement in a Luminex100 instrument by determination of 100 events per cavity in a measurement time of 60 sec. As pharmacological blank, the signals obtained from cells which have been treated with 10 μM staurosporin are subtracted from all other batches. The control value used for maximum phosphorylation of PKB on T308 are the signals from cells which have only been treated with the solvent (0.3% of DMSO). The values of the batches treated with test substance are calculated therefrom as percentage of control, and IC50 values are determined by means of RS 1.

In assay [2] the target is T2, PDK1 (Homo sapiens, UniProt O15530).
T2 construct: His6 (N)
T2 sequence (O15530 51-556 limits assumed): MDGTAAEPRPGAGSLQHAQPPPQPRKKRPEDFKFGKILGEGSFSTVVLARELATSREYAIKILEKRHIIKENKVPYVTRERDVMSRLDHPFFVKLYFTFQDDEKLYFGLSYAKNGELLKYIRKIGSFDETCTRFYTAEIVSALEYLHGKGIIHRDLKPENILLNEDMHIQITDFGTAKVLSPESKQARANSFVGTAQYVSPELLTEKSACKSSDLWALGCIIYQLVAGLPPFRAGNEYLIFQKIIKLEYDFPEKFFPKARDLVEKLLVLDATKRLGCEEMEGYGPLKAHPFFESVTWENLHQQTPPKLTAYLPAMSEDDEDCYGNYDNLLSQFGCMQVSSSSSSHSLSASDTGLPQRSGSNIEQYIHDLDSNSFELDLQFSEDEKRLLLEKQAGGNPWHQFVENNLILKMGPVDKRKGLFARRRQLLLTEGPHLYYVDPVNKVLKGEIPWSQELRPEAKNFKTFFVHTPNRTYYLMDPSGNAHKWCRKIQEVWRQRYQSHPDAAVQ
The assay is described as follows: Test for the inhibition of PDK1 (flashplate, 33P-ATP). The note with it: His6-PDK1 (1-50) 3.4 nM, 4 μM ATP, 30° C., 60 min; read-out: IC50 [PDK1] biochemical. On the procedure:
The experimental batches are carried out in a flashplate system with 384 wells/microtitration plate.
In each case, the PDK1 sample His6-PDK1 (1-50) (3.4 nM), the PDK1 substrate biotin-bA-bA-[…] (400 nM), 4 μM ATP (with 0.2μ Ci of ^33P-ATP/well) and the test substance in 50 μl of conventional experimental solution per well are incubated at 30° C. for 60 min. The test substances are employed in corresponding concentrations (if desired in a dilution series). The control is carried out without test substance. The reaction is stopped using standard methods and washed. The activity of the kinase is measured via the incorporated radioactivity in top count. In order to determine the non-specific kinase reaction (blank value), the experimental batches are carried out in the presence of 100 nM staurosporin.
The radioactivity (decompositions per minute) of the blank value (no use of test substance in the presence of staurosporin) is subtracted from all other radioactivity values. The controls (kinase activity without test substance) are set equal to 100 percent and all other radioactivity values (after subtracting the blank value) are expressed set in relation thereto (for example in % of the control).
IC50 values (50% inhibition) are determined with the aid of statistics programmes, such as, for example, RS1.

For `Cn1cc(-c2cnc3[nH]cc(-c4n[nH]c(C(C)(O)c5ccccc5F)n4)c3c2)cn1` (stereo not shown) [A49], the figures for the IC50 in assay [1] and in assay [2] were 1000 to 10000 nM and 0.5 to 1000 nM, respectively.
In the case of `Cn1cc(-c2cnc3[nH]cc(-c4noc(C(C)(O)c5ccccc5F)n4)c3c2)cn1` (stereo not shown) [A50], the IC50 (as a rule, the midpoint of a concentration-inhibition curve) in assay [1] was 1000 to 10000 nM; in assay [2] it was 0.5 to 1000 nM.
Turning to `Cn1cc(-c2cnc3[nH]cc(-c4noc(C(C)(O)c5cccc(F)c5)n4)c3c2)cn1` (stereo not shown) [A51], the results for the IC50 in assay [1] and in assay [2] were 1000 to 10000 nM and 0.5 to 1000 nM, respectively.
The matching figures for `Cn1cc(-c2cnc3[nH]cc(-c4noc(C(C)(O)c5cccc(F)c5F)n4)c3c2)cn1` (stereo not shown) [A52]: 1000 to 10000 nM and 0.5 to 1000 nM.
Taken in the same sequence, the figures for `Cn1cc(-c2cnc3[nH]cc(-c4n[nH]c(C(C)(O)c5cccc(F)c5F)n4)c3c2)cn1` (stereo not shown) [A54] were 1000 to 10000 nM and 0.5 to 1000 nM.
The matching figures for `Cn1cc(-c2cnc3[nH]cc(-c4nnc(C(O)c5ccc(F)cc5)o4)c3c2)cn1` (stereo not shown) [A57, (4-fluorophenyl)-{5-[5-(1-methyl-1H-pyrazol-4-yl)-1H-pyrrolo[2,3-b]pyridin-3-yl]-1,3,4-oxadiazol-2-yl}methanol]: 1000 to 10000 nM and 0.5 to 1000 nM.
Turning to `Cn1cc(-c2cnc3[nH]cc(-c4nnc(C(O)c5cccc(Cl)c5)o4)c3c2)cn1` (stereo not shown) [A59], the IC50 in assay [1] and in assay [2] was 0.5 to 1000 nM throughout.
As for `Cn1cc(-c2cnc3[nH]cc(-c4nnc(C(O)c5ccc(Cl)cc5)o4)c3c2)cn1` (stereo not shown) [A60], the IC50 in assay [1] and in assay [2] was 1000 to 10000 nM in each case.
In the case of `Cn1cc(-c2cnc3[nH]cc(-c4cc(C(C)(O)c5cccc(F)c5F)on4)c3c2)cn1` (stereo not shown) [A61], the IC50 in assay [1] and in assay [2] was 0.5 to 1000 nM in each case.
Turning to `Cn1cc(-c2cnc3[nH]cc(-c4cc(C(C)(O)c5cccc(F)c5F)[nH]n4)c3c2)cn1` (stereo not shown) [A64], the IC50 in assay [1] and in assay [2] was 0.5 to 1000 nM throughout.
Consider `Cn1cc(-c2cnc3[nH]cc(-c4nnc(C(O)c5cccc(Cl)c5Cl)o4)c3c2)cn1` (stereo not shown) [A65], for which the IC50 in assay [1] and in assay [2] was 0.5 to 1000 nM each time.
Regarding `Cn1cc(-c2cnc3[nH]cc(-c4nc(C(C)(O)c5ccccc5)no4)c3c2)cn1` (stereo not shown) [A67], the IC50 is 0.5 to 1000 nM in assay [1] and 1000 to 10000 nM in assay [2].
The matching figures for `Cn1cc(-c2cnc3[nH]cc(-c4cc(C(C)(O)c5ccccc5)n(CCO)n4)c3c2)cn1` (stereo not shown) [A68]: 1000 to 10000 nM and 0.5 to 1000 nM.
The matching figures for `C=C(c1ccccc1)c1cc(-c2c[nH]c3ncc(-c4cnn(C)c4)cc23)nn1CCO` [A69]: 1000 to 10000 nM and 1000 to 10000 nM.
The matching figures for `Cn1cc(-c2cnc3[nH]cc(-c4nnc(C5(c6ccccc6F)CC5)o4)c3c2)cn1` [A70]: 0.5 to 1000 nM and 0.5 to 1000 nM.
Consider `Cn1cc(-c2cnc3[nH]cc(-c4nc(C(C)(O)c5cccc(F)c5)no4)c3c2)cn1` (stereo not shown) [A72], for which the IC50 in assay [1] and in assay [2] was 0.5 to 1000 nM in each case.
Regarding `Cn1cc(-c2cnc3[nH]cc(-c4cc(C(O)c5ccccc5)[nH]n4)c3c2)cn1` (stereo not shown) [A74], the half-inhibitory concentration (IC50) in assay [1] and in assay [2] was 0.5 to 1000 nM throughout.
In the case of `Cn1cc(-c2cnc3[nH]cc(-c4cc(C(O)c5ccccc5)on4)c3c2)cn1` (stereo not shown) [A75], the IC50 in assay [1] and in assay [2] was 0.5 to 1000 nM in each case.
In the case of `Cn1cc(-c2cnc3[nH]cc(-c4nc(C(C)(O)c5cccc(F)c5F)no4)c3c2)cn1` (stereo not shown) [A78], the concentration for half-maximal inhibition (IC50) in assay [1] and in assay [2] was 0.5 to 1000 nM each time.
As to `Cn1cc(-c2cnc3[nH]cc(-c4nc(C(C)(O)c5ccccc5Cl)no4)c3c2)cn1` (stereo not shown) [A79], the IC50 is 0.5 to 1000 nM in assay [1] and 1000 to 10000 nM in assay [2].
Taken in the same sequence, the figures for `Cn1cc(-c2cnc3[nH]cc(-c4nc(C(C)(O)c5cccc(Cl)c5)no4)c3c2)cn1` (stereo not shown) [A80] were 0.5 to 1000 nM and 0.5 to 1000 nM.
Taken in the same sequence, the figures for `COC(c1ccccc1)c1nnc(-c2c[nH]c3ncc(-c4cnn(C)c4)cc23)o1` (stereo not shown) [A81] were 1000 to 10000 nM and 0.5 to 1000 nM.
The matching figures for `Cn1cc(-c2cnc3[nH]cc(-c4nnc(C(F)c5cccc(F)c5)o4)c3c2)cn1` (stereo not shown) [A82]: 1000 to 10000 nM and 1000 to 10000 nM.
